Entries after “also recorded” stand apart in the source; their conditions may differ. Residues, ends and D or L forms follow the SMILES beside them. *: point of attachment. Cbz = O=C(OCc1ccccc1)*; CH2F = FC*
Assays:
[1] = system: Mouse neutrophils; assay: NDMP generation by mouse bone marrow neutrophils treated with TNF-α with or without inhibitors; assay type: cell-based; conditions: for NDMPs after TNF-α plus caspase 8 inhibitor vs TNF-α alone: WT neutrophils, 25 ng/mL rhTNF-α (TNFr1) or rmTNF-α (TNFr1 and TNFr2)
Source text: Materials and Methods. Male C57BL/6 and TNFr1 KO (stock number: 003242) mice between 6 and 8 weeks of age were obtained from Jackson Labs (Bar Harbor, Me.). Mouse and human TNF-α Recombinant Protein (rmTNF-α and rhTNF-α, respectively) were purchased from Preprotech (Rocky Hill, N.J.). NF-κB inhibitor (BAY 11-7085) and Caspase 8 inhibitor (Z-IETD-FMK) were purchased from R&D systems (Minneapolis, Minn.). The pharmacological agents were solubilized in DMSO (American Bioanalytical, Natick, Mass.). The amount of DMSO was consistent in all samples groups. Neutrophil isolation. Mouse neutrophils from bone marrow were isolated from C57B1/6 mice as previously described. The femurs and tibias were flushed with Hanks' Balanced Salt Solution without calcium & Magnesium (HBSS) (Mediatech, Inc. Manassas, Va., USA). Bone marrow particulate was disaggregated and filtered in a 70 micron filter, then centrifuged at 400×g for 10 min at 23° C. The cells in the pellet were resuspended in HBSS, placed on a 55% Percoll gradient, and centrigued at 100×g for 30 min at 23° C. The pellet was washed once more. The final neutrophil preparation was re-suspended in HBSS. The purity and viability of the neutrophils (90% purity >99% viability, respectively) was determined by flow cytometry. Neutrophil purity was assessed by flow cytometry after cell staining with fluorescently conjugated antibodies to Ly-6G, CD19, CD3 and F4/80 with >99% of the cells negative for F4/80 and CD3. The main cell contaminant in this preparation was due to B cells. Further purification was not conducted by centriguation due to risk of non-specific neutrophil activation or by magnetic beads due to microparticle-sized contaminants introduced by the beads themselves.
Microparticle Generation and Analysis. Isolated neutrophils from bone marrow preparation were plated and cultured for the indicated time at 37° C. with stated treatments. The cell/micropartocle mixture was labeled for Ly-6G and Annexin V without manipulation as previously described. […] Neutrophil derived microparticle numbers were assessed using the neutrophil specific marker, Ly-6G (Clone: 1A8, BD Pharmingen, San Diego, Calif., United States); and Annexin V (BD Pharmingen). […]
Statistical Analysis. […] The mean and standard error of the mean were calculated in experiments containing multiple data points. […]
Using flow cytometry, forward- and side-channels were set to analyze particles using 0.5-, 0.9-, and 3.0-μm latex beads for calibration as previously described (FIG. 22A). […] To enumerate NDMPs, neutrophil and NDMP mixture were analyzed with the neutrophil-specific marker, Ly6G, and the apoptosis marker, annexin V. Vesicles within the 0.3-1.0 μm range that expressed both Ly6G and phosphatidylserine were identified as NDMPs. […]

[2] = system: peritoneal cells; assay: NDMP generation by peritoneal cells collected 24 H after TGA treatment, cultured with agonists or inhibitors; assay type: cell-based, mice; conditions: peritoneal cells 24 H after 3% TGA; for decrease in NDMP generation when compared to cells cultured without inhibitor: ML7 250 μM, Z-VAD-FMK 200 μM, Z-IETD-FMK 30 μM, flow cytometry; for NDMP numbers compared to cells cultured without agent: 8-Br-cAMP 100 μM, H89 20 μM, 6-Bnz-cAMP 100 μM, 8-CPT-2Me-cAMP 100 μM, Y27632 30 μM, PGE2 1 μM, 24 H
Protocol: Experimental Protocol. A biochemical pathway for NDMP formation was investigated. Specifically, proteins associated with F-actin were investigated, as F-actin rearrangement is a terminal step in apoptosis. The role of myosin light chain kinase (hereinafter “MLC K”) in NDMP generation was initially investigated. Peritoneal cells were isolated from peritoneal lavage 24 H after 1 mL 3% TGA injection. Peritoneal cells were cultured with one of the following agonists or inhibitors overnight in a CO2 incubator: 250 μM ML7, a MLCK inhibitor, (Tocris, Bristol, UK), 200 μM Z-VAD-FMK, a caspase 3 inhibitor, (Tocris), 30 μM Z-IETD-FMK, a caspase 8 inhibitor, (Tocris), or 30 μM Z-LEHD-FMK, or a caspase 9 inhibitor, (Tocris). Cells and MPs were collected 24 H following incubation and analyzed using flow cytometry as previously described.
Statistical comparisons were performed using Student t Test (two groups), or one-way ANOVA with Holm-Sidak post-hoc test (more than two groups) using StatView 3.5 (SAS Institute, Cary, N.C.). The mean and standard error of the mean were calculated in experiments containing multiple data points. A value of p≤0.05 was considered statistically significant.
Experimental Protocol. Elucidation of potential signaling pathways involved in NDMP formation was studied. Peritoneal cells were isolated from peritoneal lavage 24 H after 1 mL 3% TGA injection. […] Cells and MPs were collected 24 H following incubation and analyzed using flow cytometry as previously described.

[3] = system: C57BL/6 mice; assay: Intraperitoneal treatment of mice with TGA, LPS or PepG: peritoneal neutrophil recruitment and NDMP generation; assay type: in vivo; conditions: for neutrophil recruitment and NDMP generation/accumulation in the peritoneum: i.p. injection, peritoneal lavage 24 H after 3% TGA; for # NDMPs: peritoneal NDMPs after treatment; for # NDMPs / # Neuts: 3% TGA 1 mL i.p., PepG 1 mg i.p., LPS 100 μg i.p., CLP 75% ligation/23 gauge puncture; for # Neuts: peritoneal neutrophils after treatment
Protocol: Low-endotoxin NDMPs were generated and used to assess host response during sepsis. More specifically, mice were treated with intraperitoneal injections of 3% thioglycolate (hereinafter, “TGA”), LPS, or petidylglycan (hereinafter “PepG”). Peritoneal neutrophil recruitment, NDMPs, and endotoxin associated with NDMPs were quantified.
Experimental Protocol. The ability of TGA to generate microparticles in vivo was investigated. Male C57BL/6 mice between 6 and 8 weeks of age (about 20 to 28 g) were injected in the peritoneum with 1 mL 3% thioglycolate (Sigma, St. Louis, Mo.) or with vehicle. Peritoneal lavage was performed 24 H after injection. Peritoneal cells were pelleted after a 10-minute 450×g centrifugation. The supernatant was then centrifuged for 10 minutes at 9,900×g to remove platelets. The platelet-free supernatant was centrifuged for 20 minutes at 16,000×g in order to pellet MPs. The MP pellet was resuspended in 500 μL sterile PBS and centrifuged for 20 minutes at 16,000×g. The MP pellet was then resuspended in 100 μL sterile PBS for analysis.
Analysis of cell surface antigen expression was performed on peritoneal lavage fluid. Flow cytometry data acquisition and analysis were performed on an LSR II using FACS Diva software (BD Biosciences). Antibodies used included: Ly-6G (Clone: 1A8, BioLegend), LY-6C (Clone: AL-21, BD Biosciences), CD11b (Clone: M1/70, BioLegend), Ter-119 (Clone: Ter-119, BioLegend), CD41 (Clone: MWReg30, BioLegend), CD105 (Clone: MJ7/18, BioLegend), Annexin V (BioLegend), and counting beads (Invitrogen, Grand Island, N.Y.). As shown in FIG. 19(A), forward and side scatter flow cytometry were initially performed on the lavage to both characterize and enumerate microparticles. A gate was created using 0.3-1.1 μm beads to isolate the MPs in the sample.
Vehicle mice and TGA-treated mice were stained with neutrophil specific Ly6G and annexinV antibodies. Total NDMPs from TGA-treated mice and vehicle mice were then enumerated.

[4] = system: peritoneal cells isolated from septic mice; assay: In vitro NDMP generation by peritoneal cells isolated from septic (CLP) mice; assay type: cell-based
Protocol: Experimental Protocol. Peritoneal lavage cells from mice made septic by cecal ligation and puncture were isolated. The cells were then incubated with or without lipopolysaccharide (hereinafter “LPS”, 100 ng/mL) for […]. MPs from these cultures were then isolated, quantified by bicinchoninic acid assay (hereinafter, “BCA”), and analyzed by fluorescence-activated cell sorting (hereinafter “FACS”).
Experimental Protocol. Peritoneal cells were isolated from septic mice 24 H after CLP. The isolated peritoneal cells were incubated with PBS or 100 ng/mL LPS for 24 H. Samples were analyzed using LSR II flow cytometer and FACS Diva software (BD Biosciences). As shown in FIG. 17(A), latex beads of a predetermined size were used to set the forward and side scatter voltages to best distinguish particles ranging from […].
Experimental Protocol. Signaling intermediates required for NDMP formation are largely unexplored. cAMP was targeted as a potential signaling mechanism involved in NDMP formation. Peritoneal cells were isolated 24 H after CLP surgeries. […] After 24 H, NDMPs were enumerated and characterized by flow cytometry.

Compound: CC[C@H](C)[C@H](NC(=O)OCc1ccccc1)C(=O)N[C@@H](CCC(=O)OC)C(=O)N[C@H](C(=O)N[C@@H](CC(=O)OC)C(=O)CF)[C@@H](C)O [Z-IETD-FMK] (Cbz-IE(OMe)TD(OMe)-CH2F)
- NDMPs after TNF-α plus caspase 8 inhibitor vs TNF-α alone ([1]; 30 μM Z-IETD-FMK, 1 h, listed as Caspase 8 inhibitor): sharply decreased but not entirely eliminated
- NDMPs after TNF-α plus caspase 8 inhibitor vs TNF-α alone ([1]; 30 μM Z-IETD-FMK, 1 h, listed as caspase 8 inhibitor): significant decrease in NDMPs
- microparticle generation after TNF-α plus caspase 8 inhibitor, only TNFr2 activated ([1]; neutrophils from TNFr1−/− mice, 25 ng/mL rmTNF-α, 30 μM Z-IETD-FMK, 1 h, listed as Caspase 8 inhibitor): did not alter NDMP numbers; also recorded: no decrease in microparticle generation
- decrease in NDMP generation when compared to cells cultured without inhibitor ([2]; 24 H culture): 37%

Compound: COC(=O)C[C@H](NC(=O)[C@H](C)NC(=O)[C@@H](NC(=O)OCc1ccccc1)C(C)C)C(=O)CF [Z-VAD-FMK] (Cbz-Val-Ala-Asp(OMe)-CH2F)
- decrease in NDMP generation when compared to cells cultured without inhibitor ([2]; 24 H culture): 37%

Compound: thioglycolate [3% TGA]
- neutrophil recruitment and NDMP generation/accumulation in the peritoneum [3]: greatest number of low endotoxin NDMPs
- neutrophil recruitment and NDMP generation/accumulation in the peritoneum ([3]; listed as TGA): resulted in neutrophil recruitment and NDMP generation; also recorded: robust accumulation of NDMPs
- # NDMPs [3]: 35.1 ×10^3
- # Neuts [3]: 6.9 ×10^6

Compound: CO[C@@H]1[C@@H]2OP(=O)(O)OC[C@H]2O[C@H]1n1c(Sc2ccc(Cl)cc2)nc2c(N)ncnc21 [EPAC, 8-CPT-2Me-cAMP]
- NDMP numbers compared to cells cultured without agent [2]: did not affect NDMP numbers

Compound: lipopolysaccharide [LPS]
- NDMP formation from peritoneal cells ([4]; LPS 100 ng/mL vs PBS, 24 H, cells isolated 24 H after CLP): enhance NDMP formation
- increase in NDMPs from LPS-treated cells compared to spontaneous NDMP generation ([4]; LPS 100 ng/mL, 18 H, peritoneal lavage cells of CLP mice): ~60%
- neutrophil recruitment and NDMP generation/accumulation in the peritoneum [3]: resulted in neutrophil recruitment and NDMP generation
- # NDMPs [3]: 2.4 ×10^3
- # Neuts [3]: 0.16 ×10^6

Compound: peptidoglycan [PepG]
- neutrophil recruitment and NDMP generation/accumulation in the peritoneum [3]: resulted in neutrophil recruitment and NDMP generation
- # NDMPs [3]: 3.0 ×10^3
- # Neuts [3]: 2.0 ×10^6

Compound: CC(C)(C)c1ccc(S(=O)(=O)/C=C/C#N)cc1 [BAY 11-7085]
- NDMP generation after activation of TNFr1, TNFr2 or both ([1]; WT or TNFr1−/− neutrophils, 25 ng/mL rmTNF-α or rhTNF-α, 20 μM BAY 11-7085, 1 h): completely abrogates NDMP generation

Compound: O=C(Nc1ncnc2c1ncn2[C@@H]1O[C@@H]2COP(=O)(O)OC2C1O)c1ccccc1 (stereo in doubt) [6-Bnz-cAMP]
- NDMP numbers compared to cells cultured without agent [2]: inhibited NDMP formation

Compound: Cl.O=S(=O)(c1cccc2c(I)cccc12)N1CCCNCC1 [ML7]
- decrease in NDMP generation when compared to cells cultured without inhibitor ([2]; 24 H culture): 75%

Compound: COC(=O)CC[C@H](NC(=O)[C@H](CC(C)C)NC(=O)OCc1ccccc1)C(=O)N[C@@H](Cc1cnc[nH]1)C(=O)N[C@@H](CC(=O)OC)C(=O)CF [Z-LEHD-FMK] (Cbz-LE(OMe)HD(OMe)-CH2F)
- NDMP generation compared to cells cultured without inhibitor ([2]; Z-LEHD-FMK 30 μM, 24 H culture): no significant difference

Compound: CCCCC[C@H](O)/C=C/[C@H]1[C@H](O)CC(=O)[C@@H]1C/C=C\CCCC(=O)O [PGE2, Prostaglandin E2]
- NDMP numbers compared to cells cultured without agent [2]: decrease in the total number of NDMPs

Compound: C[C@@H](N)[C@H]1CC[C@H](C(=O)Nc2ccncc2)CC1 [Y27632]
- NDMP numbers compared to cells cultured without agent [2]: decrease in the total number of NDMPs

Compound: Cl.Cl.O=S(=O)(NCCNC/C=C/c1ccc(Br)cc1)c1cccc2cnccc12 [H89]
- NDMP numbers compared to cells cultured without agent [2]: did not

From patent publication US10073097B2, “Diagnostic assays and methods of treating pneumonia, sepsis and systemic inflammatory response syndrome” (priority 2012, dated 2018)
